Source: publication PMC4564171 (PLoS ONE, 2015)
“And” between values parts separate entries of the source, which are not always exact repeats. Equal values may be shown once.

Key:
[1] = test system: E. coli RNA polymerase (RNAP) binding to the lac promoter (plac); experiment: Control EMSA of E. coli RNA polymerase binding to the lac promoter; details: compound 100 μM; RNAP 2.7 μM; 5'Cy5-plac probe 0.25 μM
Method: [picture] Figure C: EMSA depicting E. coli RNA Polymerase (RNAP) Binding to the lac Promoter (plac) in the Presence of 19615. […] For the EMSA a hybrid 2% acrylamide, 1% agarose gel was used which was made with and ran in a 1X TGE buffer (25 mM Tris base, 190 mM glycine, 1 mM EDTA, pH 8.3). The sequence of the 5’Cy5-plac DNA probe is as follows: 5’-gtgccctggtctgg[…]-3’ (lowercase text represents LUEGO sequence, uppercase text represents lac promoter sequence).

[2] = test system: 60 bp pvirB FID DNA probe; experiment: Fluorescence intercalator displacement (FID) assay, 60 bp probe; type: binding, Shigella flexneri; details: for 60 bp pvirB FID probe %fluorescence: ethidium bromide 45 μM, probe 1.5 μM
Method: (§1) The FID protocol was based on previously published studies and was conducted in triplicate. For the assay, black, half-area, 96-well plates (Corning, Twerksbury, MA) were used. First, 70 μL of ethidium bromide in Tris Buffer (0.1 M Tris HCl, 0.1 M NaCl, pH 8.0) was added to all wells. The concentration of ethidium bromide was contingent upon the length of the DNA probe that was used. For the 60 bp pvirB FID DNA probe, the final ethidium bromide concentration used was 45 μM; whereas, for the 10 bp pvirB (51–60) FID DNA probe, the final ethidium bromide concentration used was 7.5 μM. Next, 10 μL of either pvirB FID DNA probes (10 or 60 bp) in TE/NaCl buffer (see above) or 10 μL of TE/NaCl buffer (background fluorescence control) were added to the appropriate wells of the plate. The final concentrations of the pvirB FID DNA probes were 1.5 μM. Lastly, 20 μL of test compound (either 19615 or Berenil) in 10% DMSO Tris Buffer or 20 μL of 10% DMSO Tris Buffer (100% fluorescence control) were added to the appropriate wells of the plate. The final concentrations of each test compound ranged from 12.5 μM to 100 μM. After the addition of all reagents, the plates were protected from light and allowed to equilibrate for 30 min on an orbital shaker at room temperature. Following equilibration, fluorescence was measured […] using a Biotek Synergy H1 plate reader (Winooski, VT). The average background fluorescence was subtracted from all data generated and %fluorescence was calculated for all wells containing compound via the following formula: %fluorescence=Ftest/F100%^*100 where: Ftest = the average fluorescence value obtained for each test compound and F100% = the average fluorescence value obtained for each 100% fluorescence control.

[3] = test system: 10 bp pvirB FID DNA probes; experiment: Fluorescence intercalator displacement (FID) assay, 10 bp probes; type: binding, Shigella flexneri; details: for 10 bp pvirB 51–60 FID probe %fluorescence: ethidium bromide 7.5 μM, probe 1.5 μM
Method: as §1, with “The final concentrations of each test compound ranged from 12.5 μM to 100 μM.” left out

Chain of E. coli RNA polymerase (RNAP) binding to the lac promoter (plac) (P0A7Z4 whole entry): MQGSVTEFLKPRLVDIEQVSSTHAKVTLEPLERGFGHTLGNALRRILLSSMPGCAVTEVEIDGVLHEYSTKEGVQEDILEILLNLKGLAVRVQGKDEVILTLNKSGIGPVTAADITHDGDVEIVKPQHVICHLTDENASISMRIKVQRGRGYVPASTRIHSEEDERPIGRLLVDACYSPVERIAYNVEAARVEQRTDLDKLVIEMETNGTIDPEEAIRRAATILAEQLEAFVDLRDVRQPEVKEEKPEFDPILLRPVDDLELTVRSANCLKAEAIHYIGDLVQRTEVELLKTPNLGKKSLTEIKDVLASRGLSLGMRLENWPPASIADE
Chain of E. coli RNA polymerase (RNAP) binding to the lac promoter (plac) (P0A800 whole entry, further chain): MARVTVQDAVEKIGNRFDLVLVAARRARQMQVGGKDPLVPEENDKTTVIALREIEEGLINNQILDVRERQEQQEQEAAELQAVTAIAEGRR
Chain of E. coli RNA polymerase (RNAP) binding to the lac promoter (plac) (P0A8T7 whole entry, further chain): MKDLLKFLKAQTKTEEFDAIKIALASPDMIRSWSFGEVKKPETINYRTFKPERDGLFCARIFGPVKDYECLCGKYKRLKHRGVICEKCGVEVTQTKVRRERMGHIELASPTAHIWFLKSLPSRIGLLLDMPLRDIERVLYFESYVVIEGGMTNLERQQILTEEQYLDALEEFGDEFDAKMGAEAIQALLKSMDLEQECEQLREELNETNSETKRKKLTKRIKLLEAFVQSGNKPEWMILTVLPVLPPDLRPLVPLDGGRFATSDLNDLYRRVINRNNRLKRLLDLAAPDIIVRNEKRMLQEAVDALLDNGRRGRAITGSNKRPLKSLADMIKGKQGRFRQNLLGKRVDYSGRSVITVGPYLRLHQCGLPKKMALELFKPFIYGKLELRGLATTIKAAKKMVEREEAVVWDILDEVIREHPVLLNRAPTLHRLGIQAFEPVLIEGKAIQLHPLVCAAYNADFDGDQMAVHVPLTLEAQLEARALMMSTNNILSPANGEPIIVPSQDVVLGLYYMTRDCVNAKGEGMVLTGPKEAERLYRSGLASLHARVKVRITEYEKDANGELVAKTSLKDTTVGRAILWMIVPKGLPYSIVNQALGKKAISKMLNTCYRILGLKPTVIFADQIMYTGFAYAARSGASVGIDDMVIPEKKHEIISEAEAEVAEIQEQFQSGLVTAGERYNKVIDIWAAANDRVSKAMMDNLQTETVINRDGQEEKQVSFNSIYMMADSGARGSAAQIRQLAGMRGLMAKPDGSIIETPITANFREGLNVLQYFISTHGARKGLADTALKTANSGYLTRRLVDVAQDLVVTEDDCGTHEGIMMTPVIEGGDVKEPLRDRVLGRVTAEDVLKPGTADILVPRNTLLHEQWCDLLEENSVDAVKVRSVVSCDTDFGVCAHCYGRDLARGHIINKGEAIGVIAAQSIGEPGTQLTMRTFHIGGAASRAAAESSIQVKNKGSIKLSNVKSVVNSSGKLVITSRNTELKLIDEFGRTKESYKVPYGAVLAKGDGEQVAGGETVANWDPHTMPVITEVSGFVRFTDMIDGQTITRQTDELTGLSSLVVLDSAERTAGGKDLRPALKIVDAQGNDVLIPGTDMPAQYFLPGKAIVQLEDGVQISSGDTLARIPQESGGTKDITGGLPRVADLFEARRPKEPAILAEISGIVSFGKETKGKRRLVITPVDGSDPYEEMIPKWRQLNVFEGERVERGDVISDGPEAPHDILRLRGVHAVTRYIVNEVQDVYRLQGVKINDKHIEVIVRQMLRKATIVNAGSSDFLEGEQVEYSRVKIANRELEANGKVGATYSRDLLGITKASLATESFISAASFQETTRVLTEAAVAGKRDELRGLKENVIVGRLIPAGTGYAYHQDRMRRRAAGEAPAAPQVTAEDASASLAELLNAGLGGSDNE
Chain of E. coli RNA polymerase (RNAP) binding to the lac promoter (plac) (P00579 whole entry, further chain): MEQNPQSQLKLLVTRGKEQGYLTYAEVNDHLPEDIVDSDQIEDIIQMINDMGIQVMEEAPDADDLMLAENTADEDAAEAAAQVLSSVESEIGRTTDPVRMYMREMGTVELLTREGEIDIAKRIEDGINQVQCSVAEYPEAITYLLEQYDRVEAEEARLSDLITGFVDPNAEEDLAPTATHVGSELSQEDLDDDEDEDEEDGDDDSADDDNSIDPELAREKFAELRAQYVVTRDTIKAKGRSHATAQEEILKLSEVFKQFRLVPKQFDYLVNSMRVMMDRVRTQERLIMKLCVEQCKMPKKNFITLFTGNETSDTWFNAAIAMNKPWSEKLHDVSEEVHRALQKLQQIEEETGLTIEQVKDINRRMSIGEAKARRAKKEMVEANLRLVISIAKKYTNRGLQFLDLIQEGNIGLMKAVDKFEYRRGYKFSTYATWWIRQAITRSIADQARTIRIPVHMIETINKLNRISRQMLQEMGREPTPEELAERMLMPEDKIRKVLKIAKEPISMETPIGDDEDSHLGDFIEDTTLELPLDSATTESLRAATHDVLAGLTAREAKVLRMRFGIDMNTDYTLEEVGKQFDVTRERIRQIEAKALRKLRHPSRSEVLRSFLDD
Chain of E. coli RNA polymerase (RNAP) binding to the lac promoter (plac) (P0A8V2 whole entry, further chain): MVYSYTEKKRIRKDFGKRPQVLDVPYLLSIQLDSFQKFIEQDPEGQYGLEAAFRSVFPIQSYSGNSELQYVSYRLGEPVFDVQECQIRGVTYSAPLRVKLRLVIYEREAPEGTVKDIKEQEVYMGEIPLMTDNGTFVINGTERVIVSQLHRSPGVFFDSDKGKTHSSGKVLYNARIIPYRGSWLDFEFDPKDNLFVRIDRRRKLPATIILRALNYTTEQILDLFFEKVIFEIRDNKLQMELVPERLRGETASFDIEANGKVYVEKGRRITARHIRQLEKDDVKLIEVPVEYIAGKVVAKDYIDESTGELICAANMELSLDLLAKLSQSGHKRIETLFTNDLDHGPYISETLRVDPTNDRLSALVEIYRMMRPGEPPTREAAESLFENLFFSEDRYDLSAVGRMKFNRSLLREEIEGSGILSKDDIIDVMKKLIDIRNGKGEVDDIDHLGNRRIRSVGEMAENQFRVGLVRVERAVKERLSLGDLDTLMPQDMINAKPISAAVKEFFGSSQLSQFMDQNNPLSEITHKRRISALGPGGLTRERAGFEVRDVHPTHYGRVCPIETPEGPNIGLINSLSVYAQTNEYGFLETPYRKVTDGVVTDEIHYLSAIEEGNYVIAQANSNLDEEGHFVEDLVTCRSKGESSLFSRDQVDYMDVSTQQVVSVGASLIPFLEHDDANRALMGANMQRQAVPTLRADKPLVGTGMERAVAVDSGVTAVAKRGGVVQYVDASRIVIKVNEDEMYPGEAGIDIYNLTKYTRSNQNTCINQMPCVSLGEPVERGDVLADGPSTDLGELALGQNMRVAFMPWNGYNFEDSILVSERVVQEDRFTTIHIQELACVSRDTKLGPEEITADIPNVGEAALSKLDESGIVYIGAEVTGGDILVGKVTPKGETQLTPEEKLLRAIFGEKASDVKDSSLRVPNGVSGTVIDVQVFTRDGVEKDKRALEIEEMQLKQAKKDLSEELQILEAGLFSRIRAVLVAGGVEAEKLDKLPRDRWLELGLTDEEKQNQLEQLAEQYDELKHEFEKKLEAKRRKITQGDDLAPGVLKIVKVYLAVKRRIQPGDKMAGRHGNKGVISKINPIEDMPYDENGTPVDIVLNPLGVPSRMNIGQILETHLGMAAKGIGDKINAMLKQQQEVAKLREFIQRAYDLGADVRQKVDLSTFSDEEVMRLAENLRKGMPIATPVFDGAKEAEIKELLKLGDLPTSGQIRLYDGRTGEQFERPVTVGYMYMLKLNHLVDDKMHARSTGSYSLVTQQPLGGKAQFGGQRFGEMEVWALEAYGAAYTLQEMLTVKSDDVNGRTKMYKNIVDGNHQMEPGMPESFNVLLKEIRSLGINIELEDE

CN(C)CCOc1nc(-c2ccccc2)nc2c1oc1ccccc12 [compound 19615]
Effect on RNAP binding to the lac promoter (EMSA) [1]: no effect on RNAP binding | Displacement of ethidium bromide from the pvirB DNA probes (FID) ([2]; 12.5 to 100 μM, both 60 bp and 10 bp probes): not able to displace ethidium bromide | 60 bp pvirB FID probe %fluorescence ([2]; compound 12.5 μM): 93% ± 3% | 60 bp pvirB FID probe %fluorescence ([2]; compound 25 μM): 97% ± 2% | 60 bp pvirB FID probe %fluorescence ([2]; compound 50 μM): 95% ± 2% | 60 bp pvirB FID probe %fluorescence ([2]; compound 100 μM): 93% ± 3% | %fluorescence, 10 bp fragment pvirB 21-30 ([3]; compound 2 μM, preliminary FID screen, 5'-AATAAAGATA-3'): 92% ± 1% | %fluorescence, 10 bp fragment pvirB 31-40 ([3]; compound 2 μM, preliminary FID screen, 5'-AATTGCATCA-3'): 94% ± 2% | %fluorescence, 10 bp fragment pvirB 1-10 ([3]; compound 2 μM, preliminary FID screen, 5'-AGAATATTAT-3'): 93% ± 6% | %fluorescence, 10 bp fragment pvirB 41-50 ([3]; compound 2 μM, preliminary FID screen, 5'-ATCCAGCTAT-3'): 94% ± 1% | %fluorescence, 10 bp fragment pvirB 51-60 ([3]; compound 2 μM, preliminary FID screen, 5'-TAAAATAGTA-3'): 92% and 92% ± 0% | %fluorescence, 10 bp fragment pvirB 11-20 ([3]; compound 2 μM, preliminary FID screen, 5'-TCTTTTATCC-3'): 95% ± 3% | 10 bp pvirB 51–60 FID probe %fluorescence ([3]; compound 12.5 μM): 97% ± 2% | 10 bp pvirB 51–60 FID probe %fluorescence ([3]; compound 25 μM): 97% ± 3% | 10 bp pvirB 51–60 FID probe %fluorescence ([3]; compound 50 μM): 97% ± 2% | 10 bp pvirB 51–60 FID probe %fluorescence ([3]; compound 100 μM): 95% ± 1%
